Measurements reported in ChEMBL document CHEMBL1127565, “Identification of two hydrophobic patches in the active-site cavity of human carbonic anhydrase II by solution-phase and solid-state studies and their use in the development of tight-binding inhibitors” (J Med Chem, 1994).

These compounds were tested against Carbonic anhydrase 2 (Homo sapiens, UniProt P00918).
Description: Dissociation constant against human Carbonic anhydrase II (HCA II)
Compound NS(=O)(=O)c1ccc(C(=O)NCc2cccc3ccccc23)cc1 has a Kd of 0.6 nM.
Compound NS(=O)(=O)c1ccc(C(=O)NCC2CCCCC2)cc1 has a Kd of 1.1 nM.
CCCCCCCCNC(=O)c1ccc(S(N)(=O)=O)cc1 showed a Kd of 2.5 nM.
In the case of NS(=O)(=O)c1ccc(C(=O)NCC23CC4CC(CC(C4)C2)C3)cc1, the Kd is reported as 2.1 nM.
In the case of NS(=O)(=O)c1ccc(C(=O)N[C@@H](Cc2ccccc2)C(=O)NCC(=O)NCC(=O)O)cc1, the Kd is reported as 21 nM.
For NS(=O)(=O)c1ccc(C(=O)NCC(=O)NCC(=O)OCc2ccccc2)cc1, the Kd was 71 nM.
Work on CCCCc1ccc(COC(=O)CNC(=O)CNC(=O)CNC(=O)c2ccc(S(N)(=O)=O)cc2)cc1 yielded a Kd of 53 nM.
NS(=O)(=O)c1ccc(C(=O)NCc2ccc([N+](=O)[O-])cc2)cc1 showed a Kd of 2 nM.
NS(=O)(=O)c1ccc(C(=O)N[C@@H](Cc2ccccc2)C(=O)NCC(=O)NCC(=O)OCc2ccccc2)cc1 was tested, and the Kd was 5.3 nM.
NS(=O)(=O)c1ccc(C(=O)NCc2cccnc2)cc1 was tested, and the Kd was 4 nM.
Compound NS(=O)(=O)c1ccc(C(=O)NCC(F)(F)C(F)(F)C(F)(F)C(F)(F)C(F)(F)C(F)(F)C(F)(F)F)cc1 has a Kd of 0.3 nM.
In the case of NS(=O)(=O)c1ccc(C(=O)NC(=O)c2ccco2)cc1, the Kd is reported as 5.6 nM.
With CN(C)c1ccc(CNC(=O)c2ccc(S(N)(=O)=O)cc2)cc1 the Kd was 1.4 nM.
NS(=O)(=O)c1ccc(C(=O)NCC(=O)NCC(=O)NCC(=O)NCC(=O)OCc2ccccc2)cc1 gave a Kd of 210 nM.
NS(=O)(=O)c1ccc(C(=O)N[C@H](C(=O)NCC(=O)NCC(=O)OCc2ccccc2)c2ccccc2)cc1 showed a Kd of 0.9 nM.
Compound NS(=O)(=O)c1ccc(C(=O)NCc2ccccn2)cc1 has a Kd of 4.3 nM.
Cc1ccccc1CNC(=O)c1ccc(S(N)(=O)=O)cc1 was tested, and the Kd was 2.2 nM.
NS(=O)(=O)c1ccc(C(=O)NCSc2ccccc2)cc1 was tested, and the Kd was 1.7 nM.
NS(=O)(=O)c1ccc(C(=O)NCc2ccc(F)c(F)c2F)cc1 showed a Kd of 2.3 nM.
Work on NS(=O)(=O)c1ccc(C(=O)NCc2ccncc2)cc1 yielded a Kd of 1.4 nM.
With CNC(=O)c1ccc(S(N)(=O)=O)cc1 the Kd was 150 nM.
Compound NS(=O)(=O)c1ccc(C(=O)NCC(=O)NCC(=O)NCC(=O)OCc2ccccc2)cc1 has a Kd of 75 nM.
For NC(=O)c1ccc(S(N)(=O)=O)cc1, the Kd was 120 nM.
Work on NS(=O)(=O)c1ccc(C(=O)N[C@H](Cc2ccccc2)C(=O)NCC(=O)NCC(=O)OCc2ccccc2)cc1 yielded a Kd of 36 nM.
